Results from patent US20170050957A1, “4-AMINO-6-(HETEROCYCLIC)PICOLINATES AND 6-AMINO-2-(HETEROCYCLIC)PYRIMIDINE-4-CARBOXYLATES AND THEIR USE AS HERBICIDES” (Dow AgroSciences LLC, priority 2013, published 2017).
Where two headings read alike, the source gives them in different places.

How the values were obtained:
[1] = system: Key Broadleaf Weed and Crop Species; experiment: Post-emergent Test II herbicidal activity (Table 15); assay type: in vivo; conditions: post-emergence, 336 h, 14 d; for pest or weed control at 35 g/ha: 35 g ai/ha; for pest or weed control at 70 g/ha: 70 g ai/ha; for pest or weed control at 140 g/ha: 140 g ai/ha
Outline: (§1)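 Plants at first-second true leaf stage, grown 7-21 d in greenhouse (~15 h photoperiod, 23-29 °C day), were track-sprayed at 187 L/ha with compound in acetone/DMSO/water/isopropanol/crop oil/Triton X-155 at a high rate plus 1/2× to 1/16× dilutions. Injury scored visually after 14 d versus untreated plants, 0 (none) to 100% (complete kill).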

[2] = system: Key Grass and Sedge Weeds as well as Grass Crops; experiment: Post-emergent Test II herbicidal activity (Table 16); assay type: in vivo; conditions: post-emergence, 336 h; for pest or weed control at 35 g/ha: 35 g ai/ha; for pest or weed control at 70 g/ha: 70 g ai/ha; for pest or weed control at 140 g/ha: 140 g ai/ha
Outline: as §1

[3] = Abutilon theophrasti, velvetleaf (Abutilon theophrasti), read-out: Visual Growth Reduction (%) 14 Days After Application, ABUTH
[4] = Amaranthus retroflexus, redroot pigweed (Amaranthus retroflexus), read-out: Visual Growth Reduction (%) 14 Days After Application, AMARE
[5] = Brassica napus, oilseed rape, canola (Brassica napus), read-out: Visual Growth Reduction (%) 14 Days After Application, BRSNN
[6] = Chenopodium album, lambsquarters (Chenopodium album), read-out: Visual Growth Reduction (%) 14 Days After Application, CHEAL
[7] = Euphorbia heterophylla, wild poinsettia (Euphorbia heterophylla), read-out: Visual Growth Reduction (%) 14 Days After Application, EPHHL
[8] = Helianthus annuus, sunflower (Helianthus annuus), read-out: Visual Growth Reduction (%) 14 Days After Application, HELAN
[9] = Cyperus esculentus, yellow nutsedge (Cyperus esculentus), 14 days after application, read-out: Visual Growth Reduction (%) 14 Days After Application CYPES
[10] = Echinochloa crus-galli, barnyardgrass (Echinochloa crus-galli), 14 days after application, read-out: Visual Growth Reduction (%) 14 Days After Application ECHCG
[11] = Oryza sativa, rice (Oryza sativa), 14 days after application, read-out: Visual Growth Reduction (%) 14 Days After Application ORYSA
[12] = Setaria faberi, giant foxtail (Setaria faberi), 14 days after application, read-out: Visual Growth Reduction (%) 14 Days After Application SETFA
[13] = Triticum aestivum, wheat, spring (Triticum aestivum), 14 days after application, read-out: Visual Growth Reduction (%) 14 Days After Application TRZAS
[14] = Zea mays, maize, corn (Zea mays), 14 days after application, read-out: Visual Growth Reduction (%) 14 Days After Application ZEAMX
[15] = Cyperus esculentus, yellow nutsedge (Cyperus esculentus), 14 d, read-out: Visual Growth Reduction (%) 14 Days After Application, CYPES
[16] = Echinochloa crus-galli, barnyardgrass (Echinochloa crus-galli), 14 d, read-out: Visual Growth Reduction (%) 14 Days After Application, ECHCG
[17] = Oryza sativa, rice (Oryza sativa), 14 d, read-out: Visual Growth Reduction (%) 14 Days After Application, ORYSA
[18] = Setaria faberi, giant foxtail (Setaria faberi), 14 d, read-out: Visual Growth Reduction (%) 14 Days After Application, SETFA
[19] = Triticum aestivum, wheat, spring (Triticum aestivum), 14 d, read-out: Visual Growth Reduction (%) 14 Days After Application, TRZAS
[20] = Zea mays, maize, corn (Zea mays), 14 d, read-out: Visual Growth Reduction (%) 14 Days After Application, ZEAMX

Row | melting point | Compound | pest or weed control at 35 g/ha [1, 3] | pest or weed control at 70 g/ha [1, 3] | pest or weed control at 140 g/ha [1, 3] | pest or weed control at 35 g/ha [1, 4] | pest or weed control at 70 g/ha [1, 4] | pest or weed control at 140 g/ha [1, 4] | pest or weed control at 35 g/ha [1, 5] | pest or weed control at 70 g/ha [1, 5] | pest or weed control at 140 g/ha [1, 5] | pest or weed control at 35 g/ha [1, 6] | pest or weed control at 70 g/ha [1, 6] | pest or weed control at 140 g/ha [1, 6] | pest or weed control at 35 g/ha [1, 7] | pest or weed control at 70 g/ha [1, 7] | pest or weed control at 140 g/ha [1, 7] | pest or weed control at 35 g/ha [1, 8] | pest or weed control at 70 g/ha [1, 8] | pest or weed control at 140 g/ha [1, 8] | further results
1 | 134 to 136 °C | COc1c(N)nc(-c2ccc3ccsc3c2)nc1C(=O)O [Compound 3.21] | 0 to 29% | 30 to 44% | 45 to 59% | 95 to 100% | 95 to 100% | 95 to 100% | 75 to 84% | 85 to 94% | 95 to 100% | 85 to 94% | 85 to 94% | 95 to 100% | 75 to 84% | 85 to 94% | 95 to 100% | 60 to 74% | 60 to 74% | 75 to 84% | pest or weed control at 35 g/ha [2, 9]: 0 to 29%; pest or weed control at 70 g/ha [2, 9]: 0 to 29%; pest or weed control at 140 g/ha [2, 9]: 0 to 29%; pest or weed control at 35 g/ha [2, 10]: 75 to 84%; pest or weed control at 70 g/ha [2, 10]: 85 to 94%; pest or weed control at 140 g/ha [2, 10]: 85 to 94%; pest or weed control at 35 g/ha [2, 11]: 0 to 29%; pest or weed control at 70 g/ha [2, 11]: 30 to 44%; pest or weed control at 140 g/ha [2, 11]: 30 to 44%; pest or weed control at 35 g/ha [2, 12]: 0 to 29%; pest or weed control at 70 g/ha [2, 12]: 30 to 44%; pest or weed control at 140 g/ha [2, 12]: 60 to 74%; pest or weed control at 35 g/ha [2, 13]: 30 to 44%; pest or weed control at 70 g/ha [2, 13]: 30 to 44%; pest or weed control at 140 g/ha [2, 13]: 45 to 59%; pest or weed control at 35 g/ha [2, 14]: 30 to 44%; pest or weed control at 70 g/ha [2, 14]: 60 to 74%; pest or weed control at 140 g/ha [2, 14]: 75 to 84%
2 | 109 °C | COC(=O)c1nc(-c2cc3occc3cc2F)c(F)c(N)c1Cl [Compound 2.10] | 60 to 74% | 60 to 74% | 85 to 94% | 85 to 94% | 95 to 100% | 95 to 100% | 30 to 44% | 60 to 74% | 75 to 84% | 85 to 94% | 95 to 100% | 85 to 94% | 95 to 100% | 95 to 100% | 95 to 100% | 75 to 84% | 85 to 94% | 95 to 100% | pest or weed control at 35 g/ha [2, 15]: 0 to 29%; pest or weed control at 70 g/ha [2, 15]: 0 to 29%; pest or weed control at 140 g/ha [2, 15]: 30 to 44%; pest or weed control at 35 g/ha [2, 16]: 60 to 74%; pest or weed control at 70 g/ha [2, 16]: 60 to 74%; pest or weed control at 140 g/ha [2, 16]: 85 to 94%; pest or weed control at 35 g/ha [2, 17]: 0 to 29%; pest or weed control at 70 g/ha [2, 17]: 30 to 44%; pest or weed control at 140 g/ha [2, 17]: 30 to 44%; pest or weed control at 35 g/ha [2, 18]: 60 to 74%; pest or weed control at 70 g/ha [2, 18]: 60 to 74%; pest or weed control at 140 g/ha [2, 18]: 75 to 84%; pest or weed control at 35 g/ha [2, 19]: 0 to 29%; pest or weed control at 70 g/ha [2, 19]: 30 to 44%; pest or weed control at 140 g/ha [2, 19]: 60 to 74%; pest or weed control at 35 g/ha [2, 20]: 0 to 29%; pest or weed control at 70 g/ha [2, 20]: 30 to 44%; pest or weed control at 140 g/ha [2, 20]: 45 to 59%
